The values below are quoted from earlier work in patent US20190060287A1 (ADARE PHARMACEUTICALS, INC., priority 2017, published 2019).

Like-named read-outs stand apart in the source and are kept apart here.

The conditions of series [1]: multiple dose controlled clinical studies.

Regarding `Clc1ccc2nsnc2c1NC1=NCCN1` [tizanidine, Tizanidine], the “patients reporting that they had been drowsy during the 6 hour study” value (single dose 8 mg) is 76% and the “patients reporting that they had been drowsy during the 6 hour study” value (single dose 16 mg) is listed as 92%. In series [1] (patients receiving any dose of tizanidine), the “patients reporting sedation as a secondary event” value was 48%. Besides, in series [1] (share of the sedation cases), the “cases in which the sedation was rated as severe” value is listed as 10%.
